Assay results reported in patent publication US20260256792A1, “TREATMENT OF CHRONIC SPONTANEOUS URTICARIA BY ADMINISTERING (R)-2-[3-[4-AMINO-3-(2-FLUORO-4-PHENOXY-PHENYL)PYRAZOLO[3,4-D]PYRIMIDIN-1-YL]PIPERIDINE-1-CARBONYL]-4-METHYL-4-[4-(OXETAN-3-YL)PIPERAZIN-1-YL]PENT-2-ENENITRILE” (priority 2023, published 2026).

System: moderate-to-severe chronic spontaneous urticaria (CSU)
Test: Phase 2 CSU study: urticaria activity score over 7 days (UAS7)
Type: in vivo, human
Set-up: key to UAS7 Median / UAS7 Change from baseline Median / UAS7 change from baseline, Q1 / UAS7 change from baseline, Q3 / UAS7 change from baseline, Max / UAS7 Change from baseline LS Mean (SE): UAS7 points; daily UAS score ranges 0–6 points/day, over 7 days
Conditions: for UAS7 Post-baseline Mean (SD) / UAS7 % Change difference for rilzabrutinib vs. placebo LS Mean (95% CI) / UAS7 % Change from baseline LS Mean (SE) / UAS7 Change difference for rilzabrutinib vs. placebo LS Mean (95% CI) / UAS7 Change from baseline LS Mean (SE): Omalizumab-Naïve Population; for Change from Baseline in UAS7 at Week 12: LS Mean (SE) / Change from Baseline in UAS7 at Week 12: LS Mean Diff vs. placebo (95% CI) / Change from Baseline in UAS7 at Week 12: Mean (SD): Omalizumab-Naïve
Text: The study comprises a 12 week, randomized, double-blind, placebo-controlled, multi-center, dose-ranging efficacy and safety phase, followed by a 40 week open label extension (OLE) phase (see FIG. 1). The study consists of three phases and an optional OLE phase. […] Clinically, CSU is characterized by the spontaneous and recurrent appearance of pruritic hives. The proposed primary endpoints were the UAS7 at Week 12 in EU and EU reference countries and the ISS7 in the US. Regardless of where a participant was from, all assessments were the same. The UAS7 score is a composite score containing both the HSS7 and the ISS7. This allowed a global assessment of the two key components of urticaria: hives and itch. […] The UAS is a validated PRO measure. […] The daily UAS scores range from 0 to 6 point/day. […] Patients were to complete the UAS using the e-diary. […] The following secondary endpoints were to be analyzed using the same approach as for the primary endpoint: • Change from baseline in UAS7 at Week 4 • Change from baseline in UAS7 at Week 12 (for US and US reference countries) • Change from baseline in ISS7 at Week 12 (except US and US reference countries) • Change from baseline in HSS7 at Week 12 The following responder secondary endpoints were to be analyzed using the Cochran-Mantel-Haenszel test adjusted by region: • Proportion of participants with UAS7<6 at Week 12 • Proportion of participants with UAS7=0 at Week 12 Participants who received selected prohibited medications and/or rescue medications were to be considered as non-responders for time points after the medication usage. For other participants, all available data including those collected during the off-treatment period were to be used to determine the responder/non-responder status. Missing data were to be considered as non-responders.

[1] = Age group (years) <44 (Median), 400 mg BID
[2] = Age group (years) <44 (Median), 400 mg QPM
[3] = Age group (years) <44 (Median), 400 mg TID
[4] = Age group (years) <65, 400 mg BID
[5] = Age group (years) <65, 400 mg QPM
[6] = Age group (years) <65, 400 mg TID
[7] = Age group (years) ≥44 (Median), 400 mg BID

SMILES: CC(C)(C=C(C#N)C(=O)N1CCC[C@@H](n2nc(-c3ccc(Oc4ccccc4)cc3F)c3c(N)ncnc32)C1)N1CCN(C2COC2)CC1 [rilzabrutinib, (R)-2-[3-[4-amino-3-(2-fluoro-4-phenoxy-phenyl)pyrazolo[3,4-d]pyrimidin-1-yl]piperidine-1-carbonyl]-4-methyl-4-[4-(oxetan-3-yl)piperazin-1-yl]pent-2-enenitrile]
- UAS7 Post-baseline Mean (SD) (400 mg QPM, Week 3): 22.01 (9.00)
- UAS7 % Change difference for rilzabrutinib vs. placebo LS Mean (95% CI) (400 mg QPM, Week 4): −8.22%
- UAS7 % Change from baseline LS Mean (SE) (400 mg QPM, Week 4): −28.63 (5.66) %
- UAS7 Change difference for rilzabrutinib vs. placebo LS Mean (95% CI) (400 mg QPM, Week 4): −2.08
- UAS7 Change from baseline LS Mean (SE) (400 mg QPM, Week 4): −9.14 (1.66)
- UAS7 Post-baseline Mean (SD) (400 mg QPM, Week 4): 21.92 (8.82)
- UAS7 Post-baseline Mean (SD) (400 mg QPM, Week 5): 20.63 (9.18)
- UAS7 Post-baseline Mean (SD) (400 mg QPM, Week 6): 20.21 (10.42)
- UAS7 Post-baseline Mean (SD) (400 mg QPM, Week 7): 21.11 (10.03)
- UAS7 Post-baseline Mean (SD) (400 mg QPM, Week 9): 20.25 (10.25)
- UAS7 Post-baseline Mean (SD) (400 mg QPM, Week 10): 20.27 (10.69)
- UAS7 Post-baseline Mean (SD) (400 mg QPM, Week 11): 21.17 (11.16)
- UAS7 % Change difference for rilzabrutinib vs. placebo LS Mean (95% CI) (400 mg QPM, Week 12): −4.51%
- UAS7 % Change from baseline LS Mean (SE) (400 mg QPM, Week 12): −34.79 (6.80) %
- UAS7 Change difference for rilzabrutinib vs. placebo LS Mean (95% CI) (400 mg QPM, Week 12): 0.40
- UAS7 Change from baseline LS Mean (SE) (400 mg QPM, Week 12): −9.74 (2.00)
- UAS7 % Change difference for rilzabrutinib vs. placebo LS Mean (95% CI) (400 mg TID, Week 1): −27.13%
- UAS7 % Change from baseline LS Mean (SE) (400 mg TID, Week 1): −36.60 (5.66) %
- UAS7 Change difference for rilzabrutinib vs. placebo LS Mean (95% CI) (400 mg TID, Week 1): −7.89
- UAS7 Change from baseline LS Mean (SE) (400 mg TID, Week 1): −11.44 (1.56)
- UAS7 Post-baseline Mean (SD) (400 mg TID, Week 1): 17.77 (10.26)
- UAS7 % Change difference for rilzabrutinib vs. placebo LS Mean (95% CI) (400 mg TID, Week 2): −27.13%
- UAS7 % Change from baseline LS Mean (SE) (400 mg TID, Week 2): −44.90 (5.51) %
- UAS7 Change difference for rilzabrutinib vs. placebo LS Mean (95% CI) (400 mg TID, Week 2): −7.73
- UAS7 Change from baseline LS Mean (SE) (400 mg TID, Week 2): −13.63 (1.56)
- UAS7 Post-baseline Mean (SD) (400 mg TID, Week 2): 15.65 (10.66)
- UAS7 % Change difference for rilzabrutinib vs. placebo LS Mean (95% CI) (400 mg TID, Week 3): −27.19%
- UAS7 % Change from baseline LS Mean (SE) (400 mg TID, Week 3): −47.14 (5.69) %
- UAS7 Change difference for rilzabrutinib vs. placebo LS Mean (95% CI) (400 mg TID, Week 3): −6.90
- UAS7 Change from baseline LS Mean (SE) (400 mg TID, Week 3): −13.83 (1.65)
- UAS7 Post-baseline Mean (SD) (400 mg TID, Week 3): 15.37 (9.87)
- UAS7 % Change difference for rilzabrutinib vs. placebo LS Mean (95% CI) (400 mg TID, Week 4): −26.33%
- UAS7 % Change from baseline LS Mean (SE) (400 mg TID, Week 4): −46.75 (5.92) %
- UAS7 Change difference for rilzabrutinib vs. placebo LS Mean (95% CI) (400 mg TID, Week 4): −6.60
- UAS7 Change from baseline LS Mean (SE) (400 mg TID, Week 4): −13.66 (1.72)
- UAS7 Post-baseline Mean (SD) (400 mg TID, Week 4): 14.65 (9.61)
- UAS7 Change difference for rilzabrutinib vs. placebo LS Mean (95% CI) (400 mg TID, Week 5): −5.10
- UAS7 Change from baseline LS Mean (SE) (400 mg TID, Week 5): −15.54 (1.72)
- UAS7 Post-baseline Mean (SD) (400 mg TID, Week 5): 13.41 (10.60)
- UAS7 Post-baseline Mean (SD) (400 mg TID, Week 6): 14.10 (11.23)
- UAS7 Post-baseline Mean (SD) (400 mg TID, Week 7): 13.54 (9.34)
- UAS7 Post-baseline Mean (SD) (400 mg TID, Week 8): 13.36 (9.81)
- UAS7 Post-baseline Mean (SD) (400 mg TID, Week 9): 12.57 (9.72)
- UAS7 Post-baseline Mean (SD) (400 mg TID, Week 10): 12.61 (9.89)
- UAS7 Post-baseline Mean (SD) (400 mg TID, Week 12): 11.00 (9.90)
- Change from Baseline in UAS7 at Week 12: LS Mean (SE) [1]: −13.80 (2.95)
- Change from Baseline in UAS7 at Week 12: LS Mean Diff vs. placebo (95% CI) [1]: −5.42 (−13.05, 2.21)
- Change from Baseline in UAS7 at Week 12: Mean (SD) [1]: −11.98 (9.69)
- Change from Baseline in UAS7 at Week 12: LS Mean (SE) [2]: −9.54 (2.74)
- Change from Baseline in UAS7 at Week 12: Mean (SD) [2]: −10.45 (10.67)
- Change from Baseline in UAS7 at Week 12: LS Mean (SE) [3]: −16.19 (3.68)
- Change from Baseline in UAS7 at Week 12: LS Mean Diff vs. placebo (95% CI) [3]: −7.80 (−16.46, 0.86)
- Change from Baseline in UAS7 at Week 12: Mean (SD) [3]: −18.69 (10.55)
- Change from Baseline in UAS7 at Week 12: LS Mean (SE) [4]: −13.99 (2.04)
- Change from Baseline in UAS7 at Week 12: LS Mean Diff vs. placebo (95% CI) [4]: −3.58 (−9.19, 2.03)
- Change from Baseline in UAS7 at Week 12: Mean (SD) [4]: −13.91 (11.95)
- Change from Baseline in UAS7 at Week 12: LS Mean (SE) [5]: −9.12 (1.96)
- Change from Baseline in UAS7 at Week 12: LS Mean Diff vs. placebo (95% CI) [5]: 1.30 (−4.27, 6.86)
- Change from Baseline in UAS7 at Week 12: Mean (SD) [5]: −10.37 (9.46)
- Change from Baseline in UAS7 at Week 12: LS Mean (SE) [6]: −16.30 (2.11)
- Change from Baseline in UAS7 at Week 12: LS Mean Diff vs. placebo (95% CI) [6]: −5.88 (−11.58, −0.19)
- Change from Baseline in UAS7 at Week 12: Mean (SD) [6]: −18.19 (11.00)
- Change from Baseline in UAS7 at Week 12: LS Mean (SE) [7]: −15.12 (2.72)
- Change from Baseline in UAS7 at Week 12: LS Mean Diff vs. placebo (95% CI) [7]: −3.56 (−11.91, 4.80)
- Change from Baseline in UAS7 at Week 12: Mean (SD) [7]: −16.63 (13.80)
- Change from Baseline in UAS7 at Week 12: LS Mean (SE) (Age group (years) ≥44 (Median), 400 mg QPM): −8.84 (2.81)
